pKi: −log10 of the molar value.
Columns and labels:
[1] = molecular target: soluble human BACE1 catalytic domain (Homo sapiens (Human), UniProt P56817); assay: BACE-1 Ki Assay (BACE-1 HTRF FRET Assay); type: biochemical; conditions: Ki calculated from IC50 using the Cheng-Prusoff equation; QSY7-APPswe-Eu substrate 200 nM, pH 5.0
Protocol: In another embodiment, the compounds of the invention comprise the example compounds shown in the table below, or a tautomer thereof, or a pharmaceutically acceptable salt of said compound or said tautomer. Examples 2 to 42 were prepared using the method similar to Ex. 1. Example 44 to 51 were synthesized using the method similar to Ex. 43. BACE-1 values reported in this table were measured using BACE-1 Ki Assay (BACE-1 HTRF FRET Assay).
• Reagents: Na^+-Acetate pH 5.0; 1% Brij-35; Glycerol; Dimethyl Sulfoxide (DMSO); Recombinant human soluble BACE1 catalytic domain (>95% pure); APP Swedish mutant peptide substrate (QSY7-APP^swe-Eu): QSY7-EISEVNLDAEFC-Europium-amide.
A homogeneous time-resolved FRET assay can be used to determine IC50 values for inhibitors of the soluble human BACE1 catalytic domain. This assay monitors the increase of 620 nm fluorescence that resulted from BACE1 cleavage of an APPswedish APP^swe mutant peptide FRET substrate (QSY7-EISEVNLDAEFC-Europium-amide). This substrate contains an N-terminal QSY7 moiety that serves as a quencher of the C-terminal Europium fluorophore (620 nm Em). In the absence of enzyme activity, 620 nm fluorescence is low in the assay and increased linearly over 3 hours in the presence of uninhibited BACE1 enzyme. Inhibition of BACE1 cleavage of the QSY7-APP^swe-Eu substrate by inhibitors is manifested as a suppression of 620 nm fluorescence.
Varying concentrations of inhibitors at 3× the final desired concentration in a volume of 10 ul are preincubated with purified human BACE1 catalytic domain (3 nM in 10 μl) for 30 minutes at 30° C. in reaction buffer containing 20 mM Na-Acetate pH 5.0, 10% glycerol, 0.1% Brij-35 and 7.5% DSMO. Reactions are initiated by addition of 10 μl of 600 nM QSY7-APP^swe-Eu substrate (200 nM final) to give a final reaction volume of 30 μl in a 384 well Nunc HTRF plate. The reactions are incubated at 30° C. for 1.5 hours. The 620 nm fluorescence is then read on a Rubystar HTRF plate reader (BMG Labtechnologies) using a 50 millisecond delay followed by a 400 millisecond acquisition time window. Inhibitor IC50 values are derived from non-linear regression analysis of concentration response curves. Ki values are then calculated from IC50 values using the Cheng-Prusoff equation using a previously determined […] of 8 μM for the QSY7-APP^swe-Eu substrate at BACE1.

[2] = molecular target: purified human autoBACE-2 (Homo sapiens (Human), UniProt Q9Y5Z0); assay: BACE-2 Assay (BACE-HTRF assay); type: biochemical; conditions: Ki calculated from IC50 using the Cheng-Prusoff equation; QSY7-EISEVNLDAEFC-Eu-amide substrate 200 nM, pH 5.0
Chain of purified human autoBACE-2 (Q9Y5Z0 63-473 limits assumed): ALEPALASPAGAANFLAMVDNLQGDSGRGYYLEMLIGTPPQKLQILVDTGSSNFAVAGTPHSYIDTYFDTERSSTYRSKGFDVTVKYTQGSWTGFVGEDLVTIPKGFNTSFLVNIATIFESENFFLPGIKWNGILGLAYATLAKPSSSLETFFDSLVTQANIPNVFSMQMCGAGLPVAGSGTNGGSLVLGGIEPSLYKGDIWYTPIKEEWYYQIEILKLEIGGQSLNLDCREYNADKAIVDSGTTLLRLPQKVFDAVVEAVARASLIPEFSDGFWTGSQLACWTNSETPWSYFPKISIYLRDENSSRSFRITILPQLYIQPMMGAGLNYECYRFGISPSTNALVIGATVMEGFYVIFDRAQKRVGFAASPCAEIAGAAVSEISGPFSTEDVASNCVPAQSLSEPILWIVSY
Protocol: Inhibitor IC50s at purified human autoBACE-2 are determined in a time-resolved endpoint proteolysis assay that measures hydrolysis of the QSY7-EISEVNLDAEFC-Eu-amide FRET peptide substrate (BACE-HTRF assay). BACE-mediated hydrolysis of this peptide results in an increase in relative fluorescence (RFU) at 620 nm after excitation with 320 nm light. Inhibitor compounds, prepared at 3× the desired final concentration in 1×BACE assay buffer (20 mM sodium acetate pH 5.0, 10% glycerol, 0.1% Brij-35) supplemented with 7.5% DMSO are pre-incubated with an equal volume of autoBACE-2 enzyme diluted in 1×BACE assay buffer (final enzyme concentration 1 nM) in black 384-well NUNC plates for 30 minutes at 30° C. […] DMSO is present at […] final concentration in the assay. Following laser excitation of sample wells at 320 nm, the fluorescence signal at 620 nm is collected for 400 ms following a 50 μs delay on a RUBYstar HTRF plate reader (BMG Labtechnologies). Raw RFU data is normalized to maximum (1.0 nM BACE/DMSO) and minimum (no enzyme/DMSO) RFU values. IC50s are determined by nonlinear regression analysis (sigmoidal dose response, variable slope) of percent inhibition data with minimum and maximum values set to 0 and 100 percent respectively. Similar IC50s are obtained when using raw RFU data. The Ki values are calculated from the IC50 using the Cheng-Prusoff equation.

Chain of soluble human BACE1 catalytic domain (P56817 75-416): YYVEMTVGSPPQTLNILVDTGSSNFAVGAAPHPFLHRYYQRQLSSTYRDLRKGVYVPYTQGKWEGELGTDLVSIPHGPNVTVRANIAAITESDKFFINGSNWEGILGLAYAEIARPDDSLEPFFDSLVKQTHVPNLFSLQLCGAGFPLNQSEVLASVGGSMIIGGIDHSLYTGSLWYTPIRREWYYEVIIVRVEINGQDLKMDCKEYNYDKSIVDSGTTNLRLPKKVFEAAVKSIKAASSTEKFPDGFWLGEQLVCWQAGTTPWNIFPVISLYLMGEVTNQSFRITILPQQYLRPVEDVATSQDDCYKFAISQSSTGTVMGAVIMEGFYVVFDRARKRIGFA

pKi [1]: 6.32
pKi [2]: 7.10
Compound: Cc1ncc2c(n1)C[C@@](C)(c1sc(-c3cccc(-c4ncno4)c3)cc1Cl)NC2=N [Example 29, (7S)-7-{3-chloro-5-[3-(1,2,4-oxadiazol-5-yl)phenyl]thiophen-2-yl}-2,7-dimethyl-7,8-dihydropyrido[4,3-d]pyrimidin-5(6H)-imine]

From patent US9868738B2, “Diazine-fused amidines as BACE inhibitors, compositions, and their use” (Merck Sharp & Dohme Corp., priority 2014, dated 2018)
